# Measured values published in ChEMBL document CHEMBL1201862, “PubChem BioAssay data set” (2004).
# Activity calls are given as the source filed them.
# Tests used:
# [1] = target: Protein-tyrosine kinase 2-beta (Homo sapiens, UniProt Q14289);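 also: potency of inhibitors of PYK2 kinase phosphorylation of poly-GT substrate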
# [2] = target: Arf-GAP with SH3 domain, ANK repeat and PH domain-containing protein 1 (Homo sapiens, UniProt Q9ULH1); format: functional;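 also: biochemical fluorescence polarization dose–response screen measuring inhibition of ASAP1; ASAP1 GAP domain stimulating GTP hydrolysis by truncated human ARF1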
# [3] = viability of PTEN-deleted HCT116 cells – cell-based, HCT116 PTEN knockout, dose response (AID 1047); format: functional;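 also: HCT116 colon tumor cells with PTEN knocked out; cells exposed to compound for 60 hours before readout; potency for loss of cell viability measured by luminescence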
# [4] = target: ADP-ribosylation factor GTPase-activating protein 1 (Rattus norvegicus, UniProt Q62848); test: Fluorescence polarization-based biochemical high throughput dose response screening assay to identify inhibitors of ADP-ribosylation factor GTPase activating protein 1 (ARFGAP1).; format: functional
# Estrogen receptor = target: T1, Estrogen receptor (Homo sapiens, UniProt P03372);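 also: potency for inhibiting coactivator peptide recruitment to the receptor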
# T1 sequence (P03372 whole entry): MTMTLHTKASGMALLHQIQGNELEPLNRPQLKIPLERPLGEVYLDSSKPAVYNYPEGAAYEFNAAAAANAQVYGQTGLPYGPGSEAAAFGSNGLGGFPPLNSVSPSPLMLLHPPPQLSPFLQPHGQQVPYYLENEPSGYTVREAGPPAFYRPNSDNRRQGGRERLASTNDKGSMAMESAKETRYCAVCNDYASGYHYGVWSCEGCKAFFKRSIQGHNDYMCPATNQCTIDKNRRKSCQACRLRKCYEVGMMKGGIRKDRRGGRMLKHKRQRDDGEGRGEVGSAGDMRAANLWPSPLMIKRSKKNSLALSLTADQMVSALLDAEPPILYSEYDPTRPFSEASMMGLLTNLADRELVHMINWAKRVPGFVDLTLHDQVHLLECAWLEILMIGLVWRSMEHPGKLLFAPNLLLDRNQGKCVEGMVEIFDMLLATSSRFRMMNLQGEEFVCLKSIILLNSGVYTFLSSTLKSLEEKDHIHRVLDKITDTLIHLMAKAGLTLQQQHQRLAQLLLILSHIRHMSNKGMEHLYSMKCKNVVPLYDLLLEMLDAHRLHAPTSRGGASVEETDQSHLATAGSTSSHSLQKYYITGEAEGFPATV
# Genome polyprotein = Genome polyprotein (Hepatitis C virus, UniProt Q2Q167); test: disruption of hepatitis C core self-association – biochemical, TR-FRET, dose response (AID 2159); set-up: species or system Hepacivirus hominis;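 also: blocks dimerization of HCV core protein measured by TR-FRET between tagged core106 pairs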
# [5] = target: Peroxisome proliferator-activated receptor gamma/Nuclear receptor coactivator 2 (Homo sapiens, UniProt P37231); test: (§1) TR-FRET dose response biochemical High Throughput Screening assay for agonists of the steroid receptor coactivator 2 (SRC-2) recruitment by the peroxisome proliferator-activated receptor gamma (PPAR gamma): non-selective agonists. [Related pubchem assays: 1297, 1032 ]; format: functional
# [6] = target: Peroxisome proliferator-activated receptor gamma/Nuclear receptor coactivator 1 (Homo sapiens, UniProt P37231); test: as §1, with “1 (SRC-1)” for “2 (SRC-2)”, “assays (depositor defined):AID1300, AID1808, AID504735, AID631]” for “assays: 1297, 1032 ]”; format: protein assay
# [7] = target: Peroxisome proliferator-activated receptor gamma/Nuclear receptor coactivator 3 (Homo sapiens, UniProt P37231); test: as §1, with “3 (SRC-3)” for “2 (SRC-2)”, “1301 (Confirmation screen.), 1048 (Primary screen.)]” for “1297, 1032 ]”; format: functional
# Estrogen receptor beta = Estrogen receptor beta (Homo sapiens, UniProt Q92731);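 also: recombinant ER-beta bound to coactivator SRC1 peptide in presence of estradiol agonist; inhibitors block coactivator peptide binding and lower the FRET signal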
# Sequence of Estrogen receptor beta (Q92731 whole entry): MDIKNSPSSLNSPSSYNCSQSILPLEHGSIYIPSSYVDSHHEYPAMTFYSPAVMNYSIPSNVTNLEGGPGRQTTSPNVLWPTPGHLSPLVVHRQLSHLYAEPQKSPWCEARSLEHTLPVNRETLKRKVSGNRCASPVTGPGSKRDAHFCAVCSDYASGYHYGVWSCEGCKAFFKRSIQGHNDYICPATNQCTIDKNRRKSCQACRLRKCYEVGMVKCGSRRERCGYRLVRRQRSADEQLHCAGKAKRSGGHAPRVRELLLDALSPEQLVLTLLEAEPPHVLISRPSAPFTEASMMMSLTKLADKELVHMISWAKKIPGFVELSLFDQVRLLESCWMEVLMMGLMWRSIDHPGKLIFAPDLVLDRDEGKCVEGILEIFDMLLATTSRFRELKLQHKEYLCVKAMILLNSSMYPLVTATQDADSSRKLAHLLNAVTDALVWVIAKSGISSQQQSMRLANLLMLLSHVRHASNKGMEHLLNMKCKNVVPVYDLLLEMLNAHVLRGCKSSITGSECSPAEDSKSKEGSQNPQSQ
# Ephrin type-A receptor 4 = Ephrin type-A receptor 4 (Mus musculus, UniProt Q03137); test: EphA4 ligand-binding antagonists – biochemical, colorimetric, mouse EphA4, primary screen (AID 689); format: functional
# [8] = target: T2, Serine/threonine-protein phosphatase (Homo sapiens, UniProt Q9BPW0); test: inhibition of protein phosphatase 5 activity – biochemical, fluorescence, dose response (AID 2395)
# T2 sequence (Q9BPW0 whole entry): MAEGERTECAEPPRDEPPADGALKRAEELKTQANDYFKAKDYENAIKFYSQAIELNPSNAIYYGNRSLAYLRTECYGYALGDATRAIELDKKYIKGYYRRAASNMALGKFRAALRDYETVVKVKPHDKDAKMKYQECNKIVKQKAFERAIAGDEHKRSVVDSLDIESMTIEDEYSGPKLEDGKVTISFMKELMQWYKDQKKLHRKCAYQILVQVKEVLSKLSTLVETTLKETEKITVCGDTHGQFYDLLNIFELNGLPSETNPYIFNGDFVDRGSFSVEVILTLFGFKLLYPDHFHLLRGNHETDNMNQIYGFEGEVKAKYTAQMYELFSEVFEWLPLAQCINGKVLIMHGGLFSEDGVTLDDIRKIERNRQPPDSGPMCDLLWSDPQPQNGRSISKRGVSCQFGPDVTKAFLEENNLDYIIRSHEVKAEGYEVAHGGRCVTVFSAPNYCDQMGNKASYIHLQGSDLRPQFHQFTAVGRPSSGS
# [9] = target: T3, Heat shock factor protein 1 (Mus musculus, UniProt P38532); test: enhancement of HSF1-driven luciferase signal – cell-based, NIH3T3, luminescence, dose retest, confirmation (AID 435004); format: functional;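 also: stress induced by proteasome inhibitor MG132 added 30 min after compound; luciferase reporter driven by HSF1 response element in NIH3T3 cells; actives raise luminescence as potentiators of the MG132 stress response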
# T3 sequence (P38532 whole entry): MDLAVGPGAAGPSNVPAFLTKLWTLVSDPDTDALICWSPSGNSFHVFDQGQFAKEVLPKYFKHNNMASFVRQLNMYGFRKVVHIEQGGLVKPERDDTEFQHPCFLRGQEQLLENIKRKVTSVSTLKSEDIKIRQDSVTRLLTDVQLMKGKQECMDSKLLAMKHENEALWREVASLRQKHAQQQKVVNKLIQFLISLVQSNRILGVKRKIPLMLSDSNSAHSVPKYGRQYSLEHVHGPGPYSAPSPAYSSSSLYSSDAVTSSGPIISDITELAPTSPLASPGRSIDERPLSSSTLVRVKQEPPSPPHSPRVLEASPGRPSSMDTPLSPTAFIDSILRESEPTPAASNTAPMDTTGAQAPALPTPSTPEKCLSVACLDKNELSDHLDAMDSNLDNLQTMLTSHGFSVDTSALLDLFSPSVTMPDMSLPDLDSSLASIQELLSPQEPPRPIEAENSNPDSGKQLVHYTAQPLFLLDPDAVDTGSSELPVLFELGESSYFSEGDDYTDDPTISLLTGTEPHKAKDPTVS
# [10] = microbe, parasite or virus in culture; format: functional; details: Mycobacterium tuberculosis
# [11] = inhibition of ARNT PAS-B/TACC3 complex formation – biochemical, AlphaScreen, cherry-picked samples, confirmation (AID 651703); format: functional, Homo sapiens;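 also: His-tagged ARNT PAS-B domain paired with GST-TACC3 E629A dimer coactivator fragment; potency of inhibitors that break up the complex and lower AlphaScreen signal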
# [12] = target: Serine/threonine-protein phosphatase PP1-alpha catalytic subunit (Homo sapiens, UniProt P62136); test: inhibition of protein phosphatase 1 activity – biochemical, fluorescence, dose response (AID 2394)
# Bcl-2-related protein A1 [13] = target: T4, Bcl-2-related protein A1 (Mus musculus, UniProt Q07440); test: displacement of Bid BH3 peptide from Bfl-1 – biochemical, fluorescence polarization, FITC-Bid, mouse, primary screen (AID 432)
# T4 sequence (Q07440 whole entry): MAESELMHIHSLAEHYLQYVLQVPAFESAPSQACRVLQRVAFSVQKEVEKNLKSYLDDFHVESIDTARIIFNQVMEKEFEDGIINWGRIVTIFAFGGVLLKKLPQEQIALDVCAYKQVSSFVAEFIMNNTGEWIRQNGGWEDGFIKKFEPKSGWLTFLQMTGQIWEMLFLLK
# Bcl-2-related protein A1 [14] = target: T4, Bcl-2-related protein A1; test: small-molecule antagonists of Bfl-1/BH3 interaction – biochemical, TR-FRET, mouse Bfl-1, confirmation (AID 621);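 also: TR-FRET binding of GST-Bfl-1 to FITC-labelled Bid peptide via terbium antibody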
# Streptococcus = test: GAS UMAA2166 growth inhibition – luminescence, BacTiterGlo, counter-screen for streptokinase expression inhibitor project, dose response (AID 1915); format: functional, organism-based;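 also: potency for reduction of bacterial viability or growth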
# [15] = target: E3 ubiquitin-protein ligase Mdm2 (Homo sapiens, UniProt Q00987); test: MDM2-luc reporter signal enhancers, multi-concentration potency testing, MDM2 ubiquitin-protein ligase inhibitor program, whole-cell format, luminescence detection, 384-well microplate (AID 1394); format: functional;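 also: MDM2 E3 inhibitors raise luminescence so EC50 is for signal enhancement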
# [16] = test system: Streptococcus sp. 'group A'; test: Streptococcus pyogenes SK(-)GAS viability under kanamycin – luminescence, BacTiterGlo, confirmation, counter-screen for streptokinase expression inhibitor project, dose response (AID 1900); format: functional, organism-based
# [17] = Vero E6 cell cytotoxicity, dose response, cytotoxicity control for non-replicating M. tuberculosis project, secondary assay (AID 492998); format: functional, VeroE6; details: Vero C1008
# [18] = THP-1 cell cytotoxicity, dose response, cytotoxicity control for non-replicating M. tuberculosis project (AID 489025); format: functional
# cells = format: functional
# [19] = target: Heat shock protein HSP 90-alpha (Homo sapiens, UniProt P07900); test: Luminescence-based dose response biochemical high throughput screening assay for inhibitors of the Heat Shock Protein 90 (HSP90). [Related pubchem assays: 1831 (Summary AID.), 1846 (Confirmation screen.), 1789 (Primary screen.)]
# SUMO-activating enzyme [20] = target: T5, SUMO-activating enzyme (Homo sapiens, UniProt Q9UBT2); test: blockers of UBC9-mediated SUMO conjugation – biochemical, AlphaScreen, SUMOylation inhibitor project, confirmation (AID 2018); format: functional
# T5 sequence (Q9UBE0 whole entry): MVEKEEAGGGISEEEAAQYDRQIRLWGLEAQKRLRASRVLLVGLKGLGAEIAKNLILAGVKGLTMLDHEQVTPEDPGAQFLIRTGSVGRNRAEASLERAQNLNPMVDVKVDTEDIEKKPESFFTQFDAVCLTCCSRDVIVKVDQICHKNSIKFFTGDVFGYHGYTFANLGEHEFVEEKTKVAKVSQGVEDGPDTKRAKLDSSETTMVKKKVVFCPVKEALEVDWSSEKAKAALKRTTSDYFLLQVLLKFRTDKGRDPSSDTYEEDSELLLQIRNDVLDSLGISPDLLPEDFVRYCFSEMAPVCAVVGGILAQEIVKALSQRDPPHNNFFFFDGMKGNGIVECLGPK
# T5 sequence (Q9UBT2 whole entry): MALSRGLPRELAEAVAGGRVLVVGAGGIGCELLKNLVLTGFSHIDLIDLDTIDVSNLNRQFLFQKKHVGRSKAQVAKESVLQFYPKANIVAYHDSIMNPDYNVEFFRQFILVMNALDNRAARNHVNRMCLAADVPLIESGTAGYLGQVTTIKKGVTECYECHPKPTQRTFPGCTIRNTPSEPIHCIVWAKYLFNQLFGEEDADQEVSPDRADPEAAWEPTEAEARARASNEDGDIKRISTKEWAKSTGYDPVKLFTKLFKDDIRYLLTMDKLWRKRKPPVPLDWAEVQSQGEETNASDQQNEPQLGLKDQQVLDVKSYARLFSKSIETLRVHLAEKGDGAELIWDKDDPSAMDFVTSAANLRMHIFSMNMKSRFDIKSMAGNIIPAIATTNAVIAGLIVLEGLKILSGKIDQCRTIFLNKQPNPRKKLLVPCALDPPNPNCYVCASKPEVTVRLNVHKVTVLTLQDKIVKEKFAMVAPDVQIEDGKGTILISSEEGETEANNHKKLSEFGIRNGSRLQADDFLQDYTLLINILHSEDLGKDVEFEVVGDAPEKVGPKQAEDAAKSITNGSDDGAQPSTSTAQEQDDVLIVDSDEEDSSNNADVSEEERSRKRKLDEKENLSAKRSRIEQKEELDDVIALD
# [21] = target: Beta-adrenergic receptor kinase 1 (Homo sapiens, UniProt P25098); test: aptamer displacement from bead-bound GRK2 – biochemical, cherry pick 1, bead flow cytometry, dose response (AID 504500)
# [22] = target: Induced myeloid leukemia cell differentiation protein Mcl-1 (Homo sapiens, UniProt Q07820); format: functional
# Sequence of Induced myeloid leukemia cell differentiation protein Mcl-1 (Q07820 whole entry): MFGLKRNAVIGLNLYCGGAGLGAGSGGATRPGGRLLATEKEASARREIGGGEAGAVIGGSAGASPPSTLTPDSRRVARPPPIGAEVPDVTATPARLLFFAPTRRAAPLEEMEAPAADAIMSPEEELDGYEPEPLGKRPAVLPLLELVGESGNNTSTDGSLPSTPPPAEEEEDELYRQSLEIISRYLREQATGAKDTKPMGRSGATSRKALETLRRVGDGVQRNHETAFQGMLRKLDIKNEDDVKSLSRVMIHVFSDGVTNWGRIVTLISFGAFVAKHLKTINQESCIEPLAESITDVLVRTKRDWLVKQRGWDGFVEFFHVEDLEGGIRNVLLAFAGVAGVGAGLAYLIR
# [23] = target: Bifunctional protein GlmU (Mycobacterium tuberculosis, UniProt P9WMN3); test: Inhibitors of Mycobacterial Glucosamine-1-phosphate acetyl transferase (GlmU). Secondary screen.; set-up: species or system Mycobacterium tuberculosis H37Rv
# [24] = target: T6, Voltage-gated N-type calcium channel alpha-1B subunit/Amyloid beta A4 precursor protein-binding family A member 1 (Homo sapiens, UniProt Q00975+Q02410); format: protein assay
# T6 sequence (Q00975 whole entry): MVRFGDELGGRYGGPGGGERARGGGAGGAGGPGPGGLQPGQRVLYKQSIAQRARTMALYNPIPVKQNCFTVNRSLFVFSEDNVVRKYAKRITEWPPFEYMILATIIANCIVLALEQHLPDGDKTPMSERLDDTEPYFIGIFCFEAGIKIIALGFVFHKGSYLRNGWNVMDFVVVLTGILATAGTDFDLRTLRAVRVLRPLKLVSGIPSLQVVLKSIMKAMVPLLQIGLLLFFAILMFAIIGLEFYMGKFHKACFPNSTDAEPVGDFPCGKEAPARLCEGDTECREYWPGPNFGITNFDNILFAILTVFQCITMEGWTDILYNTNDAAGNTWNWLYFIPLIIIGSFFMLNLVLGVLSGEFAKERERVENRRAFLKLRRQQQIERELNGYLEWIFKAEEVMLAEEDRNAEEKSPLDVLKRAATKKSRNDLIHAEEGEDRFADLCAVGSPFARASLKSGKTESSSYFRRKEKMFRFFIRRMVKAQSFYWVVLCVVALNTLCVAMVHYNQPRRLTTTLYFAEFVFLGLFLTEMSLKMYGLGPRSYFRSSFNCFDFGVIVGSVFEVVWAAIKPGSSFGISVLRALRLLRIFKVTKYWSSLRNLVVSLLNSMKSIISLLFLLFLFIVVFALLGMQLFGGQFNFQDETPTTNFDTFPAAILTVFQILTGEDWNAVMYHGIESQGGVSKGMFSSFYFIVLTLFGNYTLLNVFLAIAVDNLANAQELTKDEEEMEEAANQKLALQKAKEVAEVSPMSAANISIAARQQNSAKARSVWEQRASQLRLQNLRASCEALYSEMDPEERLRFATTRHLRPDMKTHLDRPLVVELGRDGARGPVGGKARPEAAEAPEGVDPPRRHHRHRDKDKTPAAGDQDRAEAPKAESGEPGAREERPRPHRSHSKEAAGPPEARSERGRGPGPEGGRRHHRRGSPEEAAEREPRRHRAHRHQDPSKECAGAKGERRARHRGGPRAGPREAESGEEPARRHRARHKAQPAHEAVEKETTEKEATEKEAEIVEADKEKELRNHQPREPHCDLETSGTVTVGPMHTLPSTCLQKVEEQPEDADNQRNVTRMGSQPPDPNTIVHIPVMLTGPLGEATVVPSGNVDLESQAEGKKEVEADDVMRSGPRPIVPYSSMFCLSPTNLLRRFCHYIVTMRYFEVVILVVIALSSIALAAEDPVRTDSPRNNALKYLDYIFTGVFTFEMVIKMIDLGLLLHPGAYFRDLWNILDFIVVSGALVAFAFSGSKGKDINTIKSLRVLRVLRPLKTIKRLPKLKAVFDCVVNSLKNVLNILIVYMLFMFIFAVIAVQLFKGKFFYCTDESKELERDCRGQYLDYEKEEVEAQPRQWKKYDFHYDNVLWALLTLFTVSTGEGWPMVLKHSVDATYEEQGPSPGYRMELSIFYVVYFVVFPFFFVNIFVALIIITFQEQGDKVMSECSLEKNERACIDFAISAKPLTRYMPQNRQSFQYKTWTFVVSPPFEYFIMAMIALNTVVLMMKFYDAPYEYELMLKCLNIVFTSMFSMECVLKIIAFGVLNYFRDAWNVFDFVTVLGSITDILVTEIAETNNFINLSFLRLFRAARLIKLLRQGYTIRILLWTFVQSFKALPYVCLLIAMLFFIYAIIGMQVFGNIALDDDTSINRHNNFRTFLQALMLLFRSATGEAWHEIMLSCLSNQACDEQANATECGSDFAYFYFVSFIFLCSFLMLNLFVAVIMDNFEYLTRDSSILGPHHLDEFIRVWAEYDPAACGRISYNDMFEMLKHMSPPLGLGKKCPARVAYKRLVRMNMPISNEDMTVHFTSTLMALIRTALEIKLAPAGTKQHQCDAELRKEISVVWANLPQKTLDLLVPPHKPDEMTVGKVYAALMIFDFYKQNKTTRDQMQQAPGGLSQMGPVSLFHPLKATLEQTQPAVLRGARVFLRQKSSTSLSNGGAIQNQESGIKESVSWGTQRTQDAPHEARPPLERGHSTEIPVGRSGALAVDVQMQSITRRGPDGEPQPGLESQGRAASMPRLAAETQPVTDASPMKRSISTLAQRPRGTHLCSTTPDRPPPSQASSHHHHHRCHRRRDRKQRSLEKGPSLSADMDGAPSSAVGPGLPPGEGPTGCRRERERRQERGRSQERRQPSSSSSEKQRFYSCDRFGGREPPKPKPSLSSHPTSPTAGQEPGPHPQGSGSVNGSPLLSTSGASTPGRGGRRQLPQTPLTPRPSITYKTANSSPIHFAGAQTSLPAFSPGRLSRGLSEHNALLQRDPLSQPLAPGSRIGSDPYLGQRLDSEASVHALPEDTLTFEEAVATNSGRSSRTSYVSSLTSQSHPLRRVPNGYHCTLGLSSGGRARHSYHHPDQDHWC
# T6 sequence (Q02410 whole entry): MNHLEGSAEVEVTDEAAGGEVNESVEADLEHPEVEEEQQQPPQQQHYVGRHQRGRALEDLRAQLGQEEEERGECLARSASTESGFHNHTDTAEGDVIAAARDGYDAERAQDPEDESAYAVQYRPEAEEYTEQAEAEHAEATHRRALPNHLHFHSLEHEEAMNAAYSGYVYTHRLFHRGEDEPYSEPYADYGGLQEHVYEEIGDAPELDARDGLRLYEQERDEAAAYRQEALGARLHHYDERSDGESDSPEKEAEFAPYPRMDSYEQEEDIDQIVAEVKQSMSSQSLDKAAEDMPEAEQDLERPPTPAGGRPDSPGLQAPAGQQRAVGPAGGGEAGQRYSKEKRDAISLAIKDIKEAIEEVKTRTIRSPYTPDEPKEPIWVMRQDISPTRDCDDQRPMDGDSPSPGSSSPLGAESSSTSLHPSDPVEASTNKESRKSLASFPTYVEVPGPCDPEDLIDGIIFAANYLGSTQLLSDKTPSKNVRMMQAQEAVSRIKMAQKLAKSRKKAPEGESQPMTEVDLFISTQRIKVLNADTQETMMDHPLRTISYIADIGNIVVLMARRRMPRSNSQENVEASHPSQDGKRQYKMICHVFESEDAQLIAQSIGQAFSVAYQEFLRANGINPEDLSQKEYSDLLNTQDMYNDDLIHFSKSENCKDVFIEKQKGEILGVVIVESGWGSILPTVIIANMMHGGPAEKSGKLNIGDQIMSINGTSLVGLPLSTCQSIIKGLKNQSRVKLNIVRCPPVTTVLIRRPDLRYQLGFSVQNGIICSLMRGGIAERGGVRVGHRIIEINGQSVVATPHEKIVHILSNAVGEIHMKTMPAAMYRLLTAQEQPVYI
# Large T antigen = Large T antigen (Simian virus 40, UniProt P03070); format: functional, Betapolyomavirus macacae;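 also: Confirmatory-stage PubChem screen for compounds that inhibit SV40 T antigen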
# SUMO-activating enzyme [25] = target: T5, SUMO-activating enzyme; test: blockers of SAE1/SAE2–UBC9 SUMO transfer – biochemical, HTRF, uHTS, primary screen (AID 2006); format: protein-complex assay
# ORF 73 = ORF 73 (Human herpesvirus 8, UniProt O40947); test: KSHV LANA DNA-binding disruption – biochemical, fluorescence polarization, cherry-picked samples, dose response (AID 504725); set-up: species or system Human gammaherpesvirus 8;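 also: fluorescence polarization of a labeled DNA duplex reporting LANA DNA binding; potency is for inhibitors that block LANA binding to the DNA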
# [26] = target: T6, Voltage-gated N-type calcium channel alpha-1B subunit/Amyloid beta A4 precursor protein-binding family A member 1; format: protein assay; remark: listed apart in the source
# [27] = target: Eukaryotic translation initiation factor 4E (Mus musculus, UniProt P63073); test: blockers of eIF4G binding by eIF4E – biochemical, TR-FRET, dose response (AID 855); format: functional;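 also: potency for disrupting eIF4E binding to eIF4GI seen as loss of FRET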
# [28] = M. tuberculosis growth inhibition, HTS (AID 449762); format: functional
# [29] = target: Mitochondrial peptide methionine sulfoxide reductase (Bos taurus, UniProt P54149); test: Absorbance-based biochemical high throughput dose response assay for activators of Methionine sulfoxide reductase A (MsrA).; format: functional
smiles,measurement,setting,value
Cc1ccc2cc3cc(C(=O)NCc4ccc5c(c4)OCO5)oc3nc2c1,IC50,[1],46.5 µM (not active)
same,IC50,[2],12.5 µM (inactive)
same,EC50,[3],20.9 µM (active)
same,IC50,[4],16.7 µM (inactive)
Cc1cc(C(=O)OCC(=O)c2ccc(Br)s2)no1,IC50,Estrogen receptor,36.2 µM (not active)
same,IC50,Genome polyprotein,> 49.8 µM (not active)
same,EC50,[5],3.89 µM (active)
same,EC50,[6],137 µM (inactive)
same,EC50,[7],> 79.4 µM (not active)
CC(=N)/C(C#N)=C(/O)CSc1nnc(Nc2cccc(C)c2C)s1,IC50,Estrogen receptor beta,12.3 µM (active)
Cc1ccccc1C(=O)c1cccn1CC(=O)NCC1CCCO1 (configuration not stated),IC50,Ephrin type-A receptor 4,> 100 µM (not active)
CCCCN(CC)c1nc(N)c2c(N)nc(OCC)cc2c1C#N,IC50,[8],15.2 µM (not active)
same,EC50,[9],> 260 µM (inactive)
same,CC50,[10],> 40 µM (active)
same,AC50,[11],92.8 µM (active)
same,IC50,[12],> 67 µM (not active)
CC(C)[C@H]1C(=O)N2CCC[C@H]2[C@]2(O)O[C@](NC(=O)[C@@H]3C=C4c5cccc6[nH]cc(c56)C[C@H]4N(C)C3)(C(C)C)C(=O)N12 [ERGOCORNINE],IC50,Bcl-2-related protein A1 [13],> 100 µM (not active)
same,IC50,Bcl-2-related protein A1 [14],> 100 µM (not active)
O=C(Nc1nnc(-c2ccc(Cl)cc2)o1)c1ccccc1Br,EC50,Streptococcus,5.91 µM (active)
same,EC50,[15],12.8 µM (not active)
same,EC50,[16],3.15 µM (active)
same,CC50,[17],18 µM (active)
same,CC50,[18],37 µM (active)
same,IC50,cells,3.74 µM (active)
Cc1nc(NC(=O)c2ccc(F)cc2)sc1C(=O)Nc1ccc2c(c1)CCC2,IC50,[19],3.84 µM (active)
Cc1ccc(NC(=O)CN2C(=O)N/C(=C/c3cccn3-c3ccc(C(=O)O)cc3)C2=O)cc1,IC50,SUMO-activating enzyme [20],1.09 µM (active)
same,EC50,[21],1.21 µM (active)
same,IC50,[22],0.996 µM (not active)
same,IC50,[23],29.4 µM (active)
same,IC50,[24],28.9 µM (active)
same,IC50,Large T antigen,24.7 µM (active)
same,IC50,SUMO-activating enzyme [25],12 µM (active)
same,AC50,ORF 73,33.9 µM (active)
same,IC50,[26],10.5 µM (active)
same,IC50,[27],9.54 µM (active)
Cc1ccc2[nH]c3c(c2c1)CN(C(=O)CN1CCN(c2ccccn2)CC1)CC3,IC50,[28],> 100 µM (active)
same,EC50,[29],> 104 µM (inactive)
